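Following 48 hours of exposure in 96-well plates, responses at five concentrations were used to interpolate endpoints linearly. GI50 = concentration required for 50% inhibition of growth. The concentration for full growth arrest is given as TGI.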
Legend:
Assay in all cases: NCI anticancer screen, dose series, 48 h
[1] = system: NCI-H23 lung
[2] = system: M14 melanoma
[3] = system: MCF7 breast
[4] = system: HOP-92 NSCLC
[5] = system: SF-268 CNS
[6] = system: CAKI-1 renal
[7] = system: MDA-MB-231 breast
[8] = system: SK-MEL-28 melanoma
[9] = system: T-47D breast
[10] = system: HCT-15 colon
[11] = system: K-562 leukemia
[12] = system: TK-10 renal
[13] = system: SW-620 colon
[14] = system: OVCAR-5 ovarian
[15] = system: BT-549 breast
[16] = system: OVCAR-4 ovarian
[17] = system: SK-MEL-2 melanoma
[18] = system: HT29 colon
[19] = system: SF-295 CNS
[20] = system: IGROV1 ovarian
[21] = system: EKVX NSCLC
[22] = system: HL-60(TB) leukemia
[23] = system: CCRF-CEM leukemia
[24] = system: SNB-19 CNS
[25] = system: MOLT-4 leukemia
[26] = system: SR leukemia
[27] = system: SF-539 CNS
[28] = system: RXF 393 renal
[29] = system: COLO 205 colon
[30] = system: KM12 colon
[31] = system: RPMI-8226 leukemia
[32] = system: SK-MEL-5 melanoma
[33] = system: NCI-H522 lung
[34] = system: HCC-2998 colon
[35] = system: HOP-62 NSCLC
[36] = system: OVCAR-8 ovarian
[37] = system: UACC-62 melanoma
[38] = system: PC-3 prostate
[39] = system: SNB-75 CNS
[40] = system: A549 NSCLC
[41] = system: UO-31 renal
[42] = system: SN12C renal
[43] = system: DU-145 prostate
[44] = system: MDA-MB-435
[45] = system: U251 CNS
[46] = system: UACC-257 melanoma
[47] = system: SK-OV-3 ovarian
[48] = system: OVCAR-3 ovarian
[49] = system: LOX IMVI melanoma
[50] = system: ACHN renal
[51] = system: HCT-116 colon
[52] = system: A498 renal
[53] = system: 786-0 renal
[54] = system: HS 578T breast
[55] = system: NCI/ADR-RES ovarian
[56] = system: NCI-H460 lung
[57] = system: MALME-3M melanoma

**Q.** `Nc1nc(Nc2ccccc2)sc1C(=O)c1ccc(Cl)cc1` was tested. Which TGI [1] did it give?
**A.** > 100 µM

**Q.** What about the TGI [2] of the same compound?
**A.** > 100 µM

**Q.** What about the TGI [3] of the same compound?
**A.** > 100 µM

**Q.** What about the TGI [4] of the same compound?
**A.** > 100 µM

**Q.** And the TGI [5]?
**A.** > 100 µM

**Q.** And the TGI [6]?
**A.** 27.4 µM

**Q.** And the TGI [7]?
**A.** > 100 µM

**Q.** And the TGI [8]?
**A.** > 100 µM

**Q.** And the TGI [9]?
**A.** > 100 µM

**Q.** What about the TGI [10] of the same compound?
**A.** > 100 µM

**Q.** And the TGI [11]?
**A.** > 100 µM

**Q.** What about the TGI [12] of the same compound?
**A.** > 100 µM

**Q.** And the TGI [13]?
**A.** > 49 µM

**Q.** And the TGI [14]?
**A.** > 100 µM

**Q.** And the TGI [15]?
**A.** > 100 µM

**Q.** And the TGI [16]?
**A.** 3.01 µM

**Q.** And the TGI [17]?
**A.** > 100 µM

**Q.** And the TGI [18]?
**A.** > 100 µM

**Q.** What about the TGI [19] of the same compound?
**A.** > 100 µM

**Q.** What about the TGI [20] of the same compound?
**A.** > 100 µM

**Q.** And the TGI [21]?
**A.** > 100 µM

**Q.** And the TGI [22]?
**A.** > 100 µM

**Q.** And the TGI [23]?
**A.** > 100 µM

**Q.** What about the TGI [24] of the same compound?
**A.** > 100 µM

**Q.** And the TGI [25]?
**A.** > 100 µM

**Q.** What about the TGI [26] of the same compound?
**A.** > 100 µM

**Q.** And the TGI [27]?
**A.** > 100 µM

**Q.** What about the TGI [28] of the same compound?
**A.** 5.17 µM

**Q.** What about the TGI [29] of the same compound?
**A.** > 100 µM

**Q.** What about the TGI [30] of the same compound?
**A.** > 100 µM

**Q.** With `COc1ccc(N(CC(=O)NCCC[Te]c2ccccc2)C(=O)CCSC2=C(C)C(=O)c3ccccc3C2=O)cc1` as the compound, how does the GI50 [31] read?
**A.** 1.02 µM

**Q.** What about the TGI [31] of the same compound?
**A.** 5.66 µM

**Q.** And the GI50 [1]?
**A.** 0.623 µM

**Q.** What about the TGI [1] of the same compound?
**A.** 2.83 µM

**Q.** What about the GI50 [32] of the same compound?
**A.** 1.56 µM

**Q.** And the TGI [32]?
**A.** 2.96 µM

**Q.** And the GI50 [33]?
**A.** 0.948 µM

**Q.** What about the TGI [33] of the same compound?
**A.** 3.59 µM

**Q.** And the GI50 [2]?
**A.** 1.17 µM

**Q.** What about the TGI [2] of the same compound?
**A.** 2.99 µM

**Q.** And the GI50 [34]?
**A.** 1.67 µM

**Q.** What about the TGI [34] of the same compound?
**A.** 4.44 µM

**Q.** And the GI50 [3]?
**A.** 0.585 µM

**Q.** What about the TGI [3] of the same compound?
**A.** 11.3 µM

**Q.** What about the GI50 [4] of the same compound?
**A.** 1.72 µM

**Q.** And the TGI [4]?
**A.** 4.44 µM

**Q.** And the GI50 [5]?
**A.** 1.11 µM

**Q.** What about the TGI [5] of the same compound?
**A.** 3.99 µM

**Q.** What about the GI50 [6] of the same compound?
**A.** 2.25 µM

**Q.** And the TGI [6]?
**A.** 6.24 µM

**Q.** What about the GI50 [35] of the same compound?
**A.** 0.582 µM

**Q.** And the TGI [35]?
**A.** 1.58 µM

**Q.** And the GI50 [7]?
**A.** 1.22 µM

**Q.** What about the TGI [7] of the same compound?
**A.** 3.46 µM

**Q.** What about the GI50 [8] of the same compound?
**A.** 2.48 µM

**Q.** And the TGI [8]?
**A.** 5.87 µM

**Q.** And the GI50 [36]?
**A.** 0.722 µM

**Q.** What about the TGI [36] of the same compound?
**A.** 6.06 µM

**Q.** And the GI50 [10]?
**A.** 0.673 µM

**Q.** And the TGI [10]?
**A.** 3.21 µM

**Q.** What about the GI50 [11] of the same compound?
**A.** 2.48 µM

**Q.** And the TGI [11]?
**A.** > 22.7 µM

**Q.** And the GI50 [12]?
**A.** 3.25 µM

**Q.** And the TGI [12]?
**A.** 8.01 µM

**Q.** What about the GI50 [37] of the same compound?
**A.** 1.82 µM

**Q.** What about the TGI [37] of the same compound?
**A.** 4.31 µM

**Q.** And the GI50 [13]?
**A.** 2.41 µM

**Q.** And the TGI [13]?
**A.** 8.03 µM

**Q.** What about the GI50 [38] of the same compound?
**A.** 0.656 µM

**Q.** And the TGI [38]?
**A.** 2.91 µM

**Q.** What about the GI50 [14] of the same compound?
**A.** 0.498 µM

**Q.** What about the TGI [14] of the same compound?
**A.** 1.88 µM

**Q.** And the GI50 [39]?
**A.** 1.17 µM

**Q.** And the TGI [39]?
**A.** 7.64 µM

**Q.** What about the GI50 [40] of the same compound?
**A.** 0.302 µM

**Q.** What about the TGI [40] of the same compound?
**A.** 1.07 µM

**Q.** And the GI50 [41]?
**A.** 0.437 µM

**Q.** And the TGI [41]?
**A.** 2.45 µM

**Q.** What about the GI50 [15] of the same compound?
**A.** 0.508 µM

**Q.** And the TGI [15]?
**A.** 3.43 µM

**Q.** What about the GI50 [16] of the same compound?
**A.** 2.95 µM

**Q.** What about the TGI [16] of the same compound?
**A.** 11.2 µM

**Q.** What about the GI50 [42] of the same compound?
**A.** 0.84 µM

**Q.** What about the TGI [42] of the same compound?
**A.** 3.77 µM

**Q.** And the GI50 [43]?
**A.** 1.44 µM

**Q.** What about the TGI [43] of the same compound?
**A.** 3.24 µM

**Q.** And the GI50 [44]?
**A.** 2.67 µM

**Q.** What about the TGI [44] of the same compound?
**A.** 8.11 µM

**Q.** And the GI50 [17]?
**A.** 2.31 µM

**Q.** What about the TGI [17] of the same compound?
**A.** 5.49 µM

**Q.** And the GI50 [45]?
**A.** 0.553 µM

**Q.** What about the TGI [45] of the same compound?
**A.** 2.32 µM

**Q.** And the GI50 [46]?
**A.** 2.56 µM

**Q.** And the TGI [46]?
**A.** 6.51 µM

**Q.** What about the GI50 [18] of the same compound?
**A.** 1.95 µM

**Q.** What about the TGI [18] of the same compound?
**A.** 7.03 µM

**Q.** What about the GI50 [47] of the same compound?
**A.** 2.14 µM

**Q.** What about the TGI [47] of the same compound?
**A.** 4.67 µM

**Q.** And the GI50 [19]?
**A.** 0.232 µM

**Q.** What about the TGI [19] of the same compound?
**A.** 0.704 µM

**Q.** And the GI50 [48]?
**A.** 1.44 µM

**Q.** What about the TGI [48] of the same compound?
**A.** 3.19 µM

**Q.** And the GI50 [20]?
**A.** 0.888 µM

**Q.** What about the TGI [20] of the same compound?
**A.** 2.35 µM

**Q.** What about the GI50 [49] of the same compound?
**A.** 1.5 µM

**Q.** What about the TGI [49] of the same compound?
**A.** 3.54 µM

**Q.** And the GI50 [21]?
**A.** 0.326 µM

**Q.** And the TGI [21]?
**A.** 2.98 µM

**Q.** And the GI50 [50]?
**A.** 1.57 µM

**Q.** What about the TGI [50] of the same compound?
**A.** 3.47 µM

**Q.** And the GI50 [51]?
**A.** 0.406 µM

**Q.** What about the TGI [51] of the same compound?
**A.** 1.72 µM

**Q.** And the GI50 [22]?
**A.** 2.97 µM

**Q.** What about the TGI [22] of the same compound?
**A.** > 26.1 µM

**Q.** And the GI50 [23]?
**A.** 0.508 µM

**Q.** And the GI50 [24]?
**A.** 2.91 µM

**Q.** What about the TGI [24] of the same compound?
**A.** 12.1 µM

**Q.** What about the GI50 [52] of the same compound?
**A.** 1.96 µM

**Q.** What about the TGI [52] of the same compound?
**A.** 4.61 µM

**Q.** What about the GI50 [25] of the same compound?
**A.** 0.911 µM

**Q.** What about the GI50 [53] of the same compound?
**A.** 2.32 µM

**Q.** And the TGI [53]?
**A.** 4.91 µM

**Q.** What about the GI50 [54] of the same compound?
**A.** 1.56 µM

**Q.** And the TGI [54]?
**A.** 6.69 µM

**Q.** What about the GI50 [55] of the same compound?
**A.** 1.46 µM

**Q.** What about the TGI [55] of the same compound?
**A.** 6.16 µM

**Q.** And the GI50 [26]?
**A.** 0.498 µM

**Q.** What about the TGI [26] of the same compound?
**A.** > 100 µM

**Q.** And the GI50 [27]?
**A.** 1.88 µM

**Q.** And the TGI [27]?
**A.** 3.65 µM

**Q.** What about the GI50 [28] of the same compound?
**A.** 2.07 µM

**Q.** What about the TGI [28] of the same compound?
**A.** 4.47 µM

**Q.** What about the GI50 [29] of the same compound?
**A.** 1.99 µM

**Q.** And the TGI [29]?
**A.** 3.64 µM

**Q.** And the GI50 [56]?
**A.** 0.31 µM

**Q.** What about the TGI [56] of the same compound?
**A.** 0.948 µM

**Q.** What about the GI50 [30] of the same compound?
**A.** 0.702 µM

**Q.** What about the TGI [30] of the same compound?
**A.** 2.18 µM

**Q.** What about the GI50 [57] of the same compound?
**A.** 2.25 µM

**Q.** And the TGI [57]?
**A.** 4.51 µM

Source: PubChem BioAssay (NCI)
